Holding throughout (assay): growth of human tumour cells (NCI), 48 h
Experiment [1] relates to MALME-3M melanoma.
The subject of experiment [2] is NCI-H460 lung.
Experiment [3] deals with HCC-2998 colon.
Experiment [4] deals with LOX IMVI melanoma.
The test system of experiment [5] is HS 578T breast.
For experiment [6], the system named is UACC-62 melanoma.
Experiment [7] relates to RXF 393 renal.
Experiment [8] relates to HOP-62 NSCLC.
Experiment [9] relates to BT-549 breast.
Experiment [10] deals with NCI-H522 lung.
The test system of experiment [11] is IGROV1 ovarian.
Experiment [12] deals with DU-145 prostate.
For experiment [13], the system named is MDA-N.
Experiment [14] concerns U251 CNS.
The test system of experiment [15] is OVCAR-5 ovarian.
Experiment [16] relates to SK-MEL-5 melanoma.
Experiment [17] relates to MCF7 breast.
The test system of experiment [18] is M14 melanoma.
For experiment [19], the system named is SN12C renal.
The test system of experiment [20] is UO-31 renal.

SMILES strings stand for the structures.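 A five-concentration, 48-hour dose response in 96-well plates underlies each endpoint, interpolated linearly between surrounding concentrations. TGI: concentration producing complete growth inhibition.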 Where a SMILES comes first, the peptide text is derived from it. The star is where a group is joined. Cbz = O=C(OCc1ccccc1)*; OBn = c1ccc(CO*)cc1

Turning to `CC1(C)C(=O)N(O)C(C)(C)N1O`, the TGI in experiment [1], in experiment [2], in [3], in [4], in experiment [5] and in experiment [6] was over 10 µM throughout. The TGI in [7], in experiment [8], in [9], in [10], in experiment [11] and in experiment [12] was over 10 µM each time. Further, the TGI in experiment [13], in experiment [14], in experiment [15], in [16], in experiment [17] and in [18] was over 10 µM each time. Further, the TGI in experiment [19] was over 10 µM.

For `Cc1c2cnccc2c(C)c2c1[nH]c1ccc(O)cc12`, the TGI was 8.28 µM in experiment [1]; 2.63 µM in experiment [2]; over 10 µM in experiment [3]; 1.71 µM in experiment [4]; over 10 µM in experiment [5]; over 10 µM in experiment [6]. In addition, the TGI in experiment [7] is 7.24 µM; in experiment [8] it was 2.75 µM; in experiment [9], over 10 µM; in [10], over 10 µM; in experiment [11], over 10 µM; in experiment [12], 5.83 µM. Besides, the TGI in experiment [13] is over 10 µM; in experiment [14], over 10 µM; in [15], over 10 µM; in experiment [16] it was over 10 µM; in experiment [17] it was 5.34 µM; in [18] it was over 10 µM. The compound further had a TGI in experiment [19] of 7.35 µM.

Take `CC(C)OP(=O)(OC(C)C)C(C(C)C)N(C)/C(N)=N\C1=NC(C(F)(F)F)(C(F)(F)F)N=C(C(C(F)(F)F)C(F)(F)F)O1` (stereo not drawn): the TGI in experiment [1] is 22.7 µM; in experiment [2] it was 9.91 µM; in experiment [3], 19.5 µM; in [4], 3.77 µM; in experiment [5], over 100 µM; in experiment [6], 4.7 µM. Besides, the TGI was 4.08 µM in experiment [7]; 18 µM in [8]; 8.2 µM in experiment [9]; 3.09 µM in [10]; 5.77 µM in experiment [11]; 25.6 µM in [12]. The TGI was 4.91 µM in experiment [13]; 11.2 µM in experiment [14]; 11.4 µM in experiment [15]; 32 µM in experiment [17]; 16 µM in experiment [20]; 4.23 µM in experiment [18]. In addition, in experiment [19], the TGI stood at 10.5 µM.

On to `COC(=O)[C@H](Cc1ccccc1)NC(=O)NCCN(CCNC(=O)N[C@@H](Cc1ccccc1)C(=O)OC)C(=O)N[C@@H](Cc1ccccc1)C(=O)OC`, for which the TGI in experiment [1] was found to be 37.8 µM; in [2], 34.8 µM; in experiment [3] it was 34.8 µM; in [4] it was 76.3 µM; in experiment [5], 45.3 µM; in experiment [6], 49.8 µM. Also, the TGI in experiment [7] was determined as 31.9 µM; in experiment [8], 39.8 µM; in [9] it was 39.2 µM; in [10], 29.6 µM; in experiment [12], 41.6 µM; in [13] it was 32.9 µM. Further, the TGI in [14] worked out at 41.2 µM; in [15] it was 35.2 µM; in experiment [16], 37.4 µM; in [17], 61.8 µM; in experiment [20] it was 45.5 µM; in [18], 45.7 µM.

As to `CC1=NC(=O)C(C)(c2ccccc2)N1CCc1ccccc1` (stereo not drawn), the TGI in [1], in experiment [3], in experiment [4], in [5], in [6] and in [7] was over 100 µM in each case. In addition, the TGI in experiment [8], in [9], in [10], in experiment [11], in [12] and in [13] was over 100 µM in each case. In addition, the TGI in experiment [14], in experiment [15], in [16], in [17], in experiment [20] and in experiment [18] was over 100 µM in each case. In [19], this compound showed a TGI of over 100 µM.

In the case of `O=C1CSC2(CC(/C=C/c3ccccc3O)=NN2c2cccc(S(=O)(=O)O)c2)N1c1nc2ccccc2s1` (stereo not drawn), the TGI was over 100 µM in experiment [1]; over 100 µM in [2]; 52.6 µM in experiment [3]; 39.3 µM in experiment [4]; over 100 µM in experiment [5]; over 100 µM in experiment [6]. Also, the TGI in experiment [7] is over 100 µM; in experiment [9], 77 µM; in experiment [10], 30.4 µM; in experiment [11], over 100 µM; in experiment [12], 97.5 µM; in experiment [13], over 100 µM. The TGI was over 100 µM in [14]; 64.4 µM in experiment [15]; over 100 µM in [16]; over 100 µM in experiment [17]; 98.9 µM in [20]; over 100 µM in experiment [18]. In [19], the TGI was 78.7 µM.

On to `COC(=O)CNC(=O)C(C)NC(=O)C(CC(=O)OCc1ccccc1)NC(=O)OCc1ccccc1` (stereo not drawn) (Cbz-Asp(OBn)-Ala-Gly-OMe; configuration not given here), for which the TGI in experiment [1] is over 100 µM; in experiment [2], over 100 µM; in [3] it was over 100 µM; in [5], over 100 µM; in experiment [6] it was over 100 µM; in experiment [7], 68.6 µM. For the same compound, the TGI in experiment [8], in [9], in experiment [10], in [11], in experiment [12] and in experiment [13] was over 100 µM throughout. Moreover, the TGI is over 100 µM in experiment [14]; over 100 µM in experiment [15]; 71.8 µM in experiment [16]; over 100 µM in experiment [17]; 62.8 µM in experiment [20]; over 100 µM in experiment [18]. In experiment [19], the TGI was over 100 µM.

Take `NC(=O)C(Nc1c(Cl)cccc1Cl)c1cc2cc(Br)ccc2nc1Cl` (stereo not drawn): the TGI in experiment [1], in experiment [2], in [3], in experiment [4], in experiment [5] and in experiment [6] was over 100 µM in each case. In addition, the TGI in experiment [7], in experiment [8], in [9], in experiment [10], in experiment [11] and in [12] was over 100 µM throughout. For the same compound, the TGI in experiment [13], in [15], in experiment [16], in [17], in experiment [20] and in experiment [18] was over 100 µM throughout. The compound further came in with a TGI in experiment [19] of over 100 µM.

`COc1cc(OCc2ccc3nc(-c4ccccc4)c(N)nc3c2)cc(OC)c1OC`: the TGI in experiment [1] is 32.4 µM; in experiment [2], 39.7 µM; in [3], over 100 µM; in [4] it was 29.7 µM; in [5], 78.3 µM; in experiment [6], 28.2 µM. Further, the TGI was determined as 77 µM in experiment [7]; 49 µM in experiment [9]; 37.7 µM in experiment [10]; 55.9 µM in [11]; 77.8 µM in experiment [12]; 28.8 µM in [13]. Besides, the TGI is over 100 µM in experiment [14]; 55.3 µM in [15]; 24 µM in experiment [16]; 56.8 µM in [17]; 34.6 µM in [20]; 29.3 µM in experiment [18]. The compound also came in with a TGI in [19] of over 100 µM.

In the case of `CC(C)=CCOc1cc(NC(=S)c2ccoc2C)ccc1Cl`, the TGI in experiment [1], in experiment [2], in [3], in experiment [4], in experiment [5] and in experiment [6] was over 100 µM each time. Also, the TGI in experiment [7], in experiment [8], in experiment [9], in experiment [10], in experiment [11] and in experiment [12] was over 100 µM throughout. The TGI in [13], in experiment [14], in experiment [15], in [16], in experiment [17] and in [20] was over 100 µM in each case. In [19], this compound yielded a TGI of over 100 µM.

`Clc1cccc(Cl)c1C=NC12CC3CC(CC(C3)C1)C2`: the TGI in experiment [1], in [2], in experiment [3], in experiment [4], in [5] and in [6] was over 10 µM each time. Also, the TGI in experiment [7], in experiment [8], in [9], in experiment [10], in experiment [11] and in experiment [12] was over 10 µM throughout. Also, the TGI in experiment [13], in experiment [14], in [15], in [16], in experiment [17] and in experiment [18] was over 10 µM in each case. This compound displayed a TGI in experiment [19] of over 10 µM.

The values are drawn from PubChem BioAssay (NCI).
